Source: US5015661A, “Chromanes and their pharmaceutical compositions and methods” (Hoffmann-La Roche Inc., priority 1989, dated 1991)

molecular target: T1, Δ^5 -lipoxygenase from rat basophilic leukemia (RBL-1) cells (Rattus norvegicus, UniProt P12527); test: In vitro test for Δ^5 -lipoxygenase inhibitors (5-LO), RBL-1 cell enzyme, 5-HETE radioimmunoassay; format: biochemical; conditions: RBL-1 5-LO; 10 min preincubation; 8.25 μM arachidonic acid, 10 min at 37° C.; 5-HETE formation; read-out: 5-LO IC-50
T1 construct: endogenous in cells; host or cells: RBL-1 rat basophilic leukemia cells (ATCC CRL 1378); 113,000×g supernatant (cytosolic fraction)
T1 sequence (P12527 1-673): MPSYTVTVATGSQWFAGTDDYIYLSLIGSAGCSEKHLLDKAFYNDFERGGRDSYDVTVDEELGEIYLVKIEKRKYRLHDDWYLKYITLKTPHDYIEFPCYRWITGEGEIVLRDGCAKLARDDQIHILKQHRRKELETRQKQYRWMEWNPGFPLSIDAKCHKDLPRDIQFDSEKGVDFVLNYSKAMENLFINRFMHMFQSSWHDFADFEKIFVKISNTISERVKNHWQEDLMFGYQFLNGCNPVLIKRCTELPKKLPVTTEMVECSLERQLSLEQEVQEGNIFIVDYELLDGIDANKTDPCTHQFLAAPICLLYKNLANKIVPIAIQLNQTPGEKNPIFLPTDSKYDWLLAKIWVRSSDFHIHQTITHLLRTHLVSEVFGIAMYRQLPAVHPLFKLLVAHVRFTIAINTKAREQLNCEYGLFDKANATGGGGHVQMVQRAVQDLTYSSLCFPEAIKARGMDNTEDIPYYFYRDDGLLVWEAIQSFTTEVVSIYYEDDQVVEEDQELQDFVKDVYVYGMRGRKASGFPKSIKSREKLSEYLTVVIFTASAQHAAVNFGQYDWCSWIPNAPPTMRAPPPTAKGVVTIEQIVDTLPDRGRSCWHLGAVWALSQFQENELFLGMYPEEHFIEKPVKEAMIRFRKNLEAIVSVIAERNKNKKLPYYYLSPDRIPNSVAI
Outline: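 Cytosolic (113,000×g supernatant) 5-LO from RBL-1 cells was preincubated with compound 10 min at 30° C, then reacted 10 min at 37° C with 8.25 μM arachidonic acid in Tris-HCl pH 7.2 with glutathione, indomethacin, CaCl2 and ATP. The reaction was stopped with citric acid (pH 3.5), and 5-HETE formed was quantified by radioimmunoassay.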

Structure (SMILES) | IC50
Cc1c(C)c2c(c(C)c1O)CCC(C)(C#Cc1ccccc1O)O2 (racemic) [Example 50 (2-HO-phenyl), rac-3,4-Dihydro-2-[(2-hydroxyphenyl)ethynyl]-2,5,7,8-tetramethyl-2H-1-benzopyran-6-ol] | 6 nM
Cc1c(C)c2c(c(C)c1O)CCC(C)(c1cc3ccccc3o1)O2 (racemic) [Example 50 (CH; H, H, H), rac-2-(2-Benzofuranyl)-3,4-dihydro-2,5,7,8-tetramethyl-2H-1-benzopyran-6-ol] | 12 nM
Cc1ccc2oc(C3(C)CCc4c(C)c(O)c(C)c(C)c4O3)cc2n1 (racemic) [Example 51, rac-3,4-Dihydro-2-(5-methylfuro[3,2[b]pyridin-2-yl)-2,5,7,8-tetramethyl-2H-1-benzopyran-6ol] | 3 nM
Cc1c(C)c2c(c(C)c1O)CCC(C)(c1cc3ncccc3o1)O2 (racemic) [Example 52, rac-3,4-Dihydro-2-(furo[3,2-b]pyridine-2-yl)-2,5,7,8-tetramethyl-2H-1-benzopyran-6-ol] | 18 nM
CCCc1c(O)c(C(C)=O)cc2cc(C3(C)CCc4c(C)c(O)c(C)c(C)c4O3)oc12 (racemic) [Example 53, rac-1-2-(3,4-Dihydro-6-hydroxy-2,5,7,8-tetramethyl-2H-1-benzopyran-2-yl)-6-hydroxy-7-propylbenzofuran-5-yl]ethanone] | 17 nM
COc1cc(CO)cc2cc(C3(C)CCc4c(C)c(O)c(C)c(C)c4O3)oc12 (racemic) [Example 55, rac-2-(3,4-Dihydro-6-hydroxy-2,5,7,8-tetramethyl-2H-1-benzopyran-2-yl)-7-methoxybenzofuran-5-methanol] | 3 nM
Cc1c(C)c2c(c(C)c1O)CC[C@](C)(C#Cc1cccs1)O2 [Example 5, (R)-3,4-Dihydro-2,5,7,8-tetramethyl-2-[(2-thienyl)ethynyl]-2H-1-benzopvran-6-ol] | 15 nM
Cc1c(C)c2c(c(C)c1O)CC[C@@](C)(C#Cc1cccs1)O2 [Example 13, (S)-3,4-Dihydro-2,5,7,8-tetramethyl-2-[(2-thienyl)ethynyl]-2H-1-benzopyran-6-ol] | 17 nM
Cc1c(C)c2c(c(C)c1O)CCC(C)(C#Cc1ccc3c(c1)N(C)C(=O)CO3)O2 (stereo not shown) [Example 48] | 32 nM

The remaining lines, values ahead:

IC50 | Structure (SMILES)
50 nM | Cc1c(C)c2c(c(C)c1O)CCC(C)(CCc1cccs1)O2 (racemic) [Example 57, rac-3,4-Dihydro-2,5,7,8-tetramethyl-2-[2-(2-thienyl)ethyl]-2H-1-benzo-pyran-6-ol]
60 nM | Cc1c(C)c2c(c(C)c1O)CCC(C)(CCc1ccccn1)O2 (racemic) [Example 58, rac-3,4-Dihydro-2,5,7,8-tetramethyl-2-[2-(2-pyridinyl)ethyl]-2H-1-benzopyran-6-ol]
30 nM | Cc1c(C)c2c(c(C)c1O)CCC(C)(CCc1cccnc1)O2 (racemic) [Example 59, rac-3,4-Dihydro-2,5,7,8-tetramethyl-2-[2-(3-pyridinyl)ethyl]-2H-1-benzopyran-6-ol]
56 nM | COc1ccc(CCC2(C)CCc3c(C)c(O)c(C)c(C)c3O2)cc1OC(C)=O (racemic) [Example 60, rac-2-{2-[3-(Acetyloxy)-4-methoxyphenyl]ethyl}-3,4-dihydro-2,5,7,8-tetramethyl-2H-1-benzopyran-6ol]
15 nM | Cc1c(C)c2c(c(C)c1O)CCC(C)(CCc1ccc(O)c(O)c1)O2 (racemic) [Example 61, rac-4-[2-(3,4-Dihydro-6-hydroxy-2,5,7,8-tetramethyl-2H-1-benzopyran-2-yl)ethyl]-1,2-benzenediol]
120 nM | COc1cccc(CCC2(C)CCc3c(C)c(O)c(C)c(C)c3O2)c1 (racemic) [Example 62, rac-3,4-Dihydro-2-[2-(3-methoxyphenyl)ethyl]-2,5,7,8-tetramethyl-2H-1-benzopyran-6-ol]
80 nM | COC(=O)c1cc(CCC2(C)CCc3c(C)c(O)c(C)c(C)c3O2)ccc1O (racemic) [Example 63, rac-5-[2-(3,4-Dihydro-6-hydroxy-2,5,7,8-tetramethyl-2H-1-benzopyran-2-yl)ethyl]-2-hydroxybenzoic acid methyl ester]
46 nM | Cc1c(C)c2c(c(C)c1O)CCC(C)(CCc1ccc(-c3cccnc3)cc1)O2 (racemic) [Example 64, rac-3,4-Dihydro-2,5,7,8-tetramethyl-2-{2-[4-(3-pyridinyl)-phenyl]ethyl}-2H-1-benzopyran-6-ol]
170 nM | Cc1c(C)c2c(c(C)c1O)CCC(C)(CCc1ccc(-c3ccccn3)s1)O2 (racemic) [Example 65, rac-3,4-Dihydro-2,5,7,8-tetramethyl-2-{2-[5-(2-pyridinyl)-2-thienyl]ethyl}-2H-1-benzopyran-6ol]
140 nM | CCCCc1ccc(CCC2(C)CCc3c(C)c(O)c(C)c(C)c3O2)s1 (racemic) [Example 66, rac-2-[2-(5-Butyl-2-thienyl)ethyl]-3,4-dihydro-2,5,7,8-tetramethyl-2H-1-benzopyran-6-ol]
